According to paper PMC8557866, “Novel Small Molecule Growth Inhibitor Affecting Bacterial Outer Membrane Reduces Extraintestinal Pathogenic Escherichia coli (ExPEC) Infection in Avian Model” (Microbiology Spectrum, 2021):
In brackets after ≈: the same amount, converted by molar mass.

Experiments:
APEC O78 = system: APEC O78; design: method as in PMID 30333507; details: cited from earlier work
APEC serotype O78 = details: for Cumulative lesion score: PC 6.2; for Mortality reduction compared to PC group: PC mortality 58.3%; for % reduction in severity, Air sacs lesions / % reduction in severity, Heart lesions / % reduction in severity, Liver lesions / % reduction in severity, Lung lesions / log reduction in APEC load, Heart / log reduction in APEC load, Kidney / log reduction in APEC load, Liver / log reduction in APEC load, Lung: vs PC; for BWG (body weight gain): in vivo
Protocol: The efficacy of GIs was assessed using commercial broiler chickens (n = 6/group). […] GI compounds (ChemBridge, San Diego, CA) dissolved in dimethyl sulfoxide (DMSO) were administered orally using a syringe, twice a day, from day 4 (1 day before APEC infection) to day 8 (3 days postinfection [dpi]). The dose of each GI is described in Table S1. […] Chickens that were infected and vehicle-treated (positive control [PC]) and noninfected and nontreated (negative control [NC]) were included as controls. On day 5, chickens were infected subcutaneously (s.c.) with rifampin-resistant (Rif^r) APEC serotype O78 ([18]) (1 × 10^7 CFU/chicken). […] To prepare the APEC inoculum for infection, Rif^r APEC O78 (50 μg/ml rifampin) was grown to logarithmic phase in LB medium, washed twice with phosphate-buffered saline (PBS), and adjusted to an optical density at 600 nm (OD600) of 0.1 (5 × 10^7 CFU/ml). The clinical signs and mortality were recorded until 7 dpi. Chickens that died during this period were necropsied on the same day, lesions in internal organs (liver, heart, lung, and air sacs) were scored as described previously ([63], [71]), and the APEC loads were quantified in internal organs (liver, heart, lung, and kidney) by plating the tissue homogenates on MacConkey agar plates containing 50 μg/ml rifampin ([18]). At 7 dpi (day 12), all live birds were euthanized, lesions were scored, and the APEC loads in internal organs were quantified as described above. The body weight of chickens was measured before GI treatment (day 3) and at the day of necropsy (day 12).

APEC = assay: microbe, parasite or virus in culture; format: cell-based, Escherichia coli; details: Escherichia coli

In the case of `CC1CCCN(CCC(=O)c2ccc(Br)cc2)C1` (stereo not shown) [GI-1], the MIC (APEC O78) is given as 200 µM (≈ 62 µg/mL), the “Mean APEC load, Heart” value (APEC serotype O78; efficacy trial, oral) is given as 6.8 Log CFU/g tissues and the “Mean APEC load, Kidney” value (APEC serotype O78; efficacy trial, oral) is given as 6.6 Log CFU/g tissues. The “Mean APEC load, Liver” value (APEC serotype O78; efficacy trial, oral) was 6.7 Log CFU/g tissues, the “Mean APEC load, Lung” value (APEC serotype O78; efficacy trial, oral) was 6.4 Log CFU/g tissues and the “Mean lesion score in Air sacs” value (APEC serotype O78; efficacy trial, oral) was 1.5. The “Mean lesion score in Heart” value (APEC serotype O78; efficacy trial, oral) was 2.0, the “Mean lesion score in Liver” value (APEC serotype O78; efficacy trial, oral) was 2.0 and the “Mean lesion score in Lung” value (APEC serotype O78; efficacy trial, oral) was 0.7. The Cumulative lesion score (APEC serotype O78; efficacy trial, oral) was 6.2, the “Mortality reduction compared to PC group” value (APEC serotype O78; efficacy trial, oral) was 8.3% and the “% reduction in severity, Air sacs lesions” value (APEC serotype O78; efficacy trial, oral) was −5.9%. For the same compound, the “% reduction in severity, Heart lesions” value (APEC serotype O78; efficacy trial, oral) was 4%, the “% reduction in severity, Liver lesions” value (APEC serotype O78; efficacy trial, oral) was −20% and the “% reduction in severity, Lung lesions” value (APEC serotype O78; efficacy trial, oral) was 33.3%. For the same compound, the “log reduction in APEC load, Heart” value (APEC serotype O78; efficacy trial, oral) was -1.8 Log CFU/g tissues, the “log reduction in APEC load, Kidney” value (APEC serotype O78; efficacy trial, oral) was -1.1 Log CFU/g tissues and the “log reduction in APEC load, Liver” value (APEC serotype O78; efficacy trial, oral) was -2.0 Log CFU/g tissues. For the same compound, the “log reduction in APEC load, Lung” value (APEC serotype O78; efficacy trial, oral) was -1.4 Log CFU/g tissues and the “BWG (body weight gain)” value (APEC serotype O78) was 165.6±69.2.
In the case of `CCN1/C(=C/c2ccc3ccccc3[n+]2CC)C=Cc2ccccc21` [GI-9], the MIC (APEC O78) is given as 25 µM, the “Mean APEC load, Heart” value (APEC serotype O78; efficacy trial, oral) is given as 5.9 Log CFU/g tissues and the “Mean APEC load, Kidney” value (APEC serotype O78; efficacy trial, oral) is given as 5.7 Log CFU/g tissues. For the same compound, the “Mean APEC load, Liver” value (APEC serotype O78; efficacy trial, oral) was 4.7 Log CFU/g tissues, the “Mean APEC load, Lung” value (APEC serotype O78; efficacy trial, oral) was 5.6 Log CFU/g tissues and the “Mean lesion score in Air sacs” value (APEC serotype O78; efficacy trial, oral) was 2.7. For the same compound, the “Mean lesion score in Heart” value (APEC serotype O78; efficacy trial, oral) was 3.3, the “Mean lesion score in Liver” value (APEC serotype O78; efficacy trial, oral) was 2.5 and the Cumulative lesion score (APEC serotype O78; efficacy trial, oral) was 9.7. For the same compound, the “Mortality reduction compared to PC group” value (APEC serotype O78; efficacy trial, oral) was 25%, the “% reduction in severity, Air sacs lesions” value (APEC serotype O78; efficacy trial, oral) was −88.2% and the “% reduction in severity, Heart lesions” value (APEC serotype O78; efficacy trial, oral) was −60%. For the same compound, the “% reduction in severity, Liver lesions” value (APEC serotype O78; efficacy trial, oral) was −50%, the “log reduction in APEC load, Heart” value (APEC serotype O78; efficacy trial, oral) was -0.5 Log CFU/g tissues and the “log reduction in APEC load, Kidney” value (APEC serotype O78; efficacy trial, oral) was -0.2 Log CFU/g tissues. The “log reduction in APEC load, Liver” value (APEC serotype O78; efficacy trial, oral) was -0.1 Log CFU/g tissues, the “log reduction in APEC load, Lung” value (APEC serotype O78; efficacy trial, oral) was -0.9 Log CFU/g tissues and the “BWG (body weight gain)” value (APEC serotype O78) was 214.9±31.9.
For `CC(=O)OC(C(Br)C(=O)c1ccc([N+](=O)[O-])cc1)C(Cl)(Cl)Cl` (stereo not shown) [GI-10], the MIC (APEC O78) is given as 25 µM (≈ 10.8 µg/mL), the “Mean APEC load, Heart” value (APEC serotype O78; efficacy trial, oral) is given as 3.9 Log CFU/g tissues and the “Mean APEC load, Kidney” value (APEC serotype O78; efficacy trial, oral) is given as 3.1 Log CFU/g tissues. The “Mean APEC load, Liver” value (APEC serotype O78; efficacy trial, oral) was 3.9 Log CFU/g tissues, the “Mean APEC load, Lung” value (APEC serotype O78; efficacy trial, oral) was 3.7 Log CFU/g tissues and the “Mean lesion score in Air sacs” value (APEC serotype O78; efficacy trial, oral) was 1.7. The “Mean lesion score in Heart” value (APEC serotype O78; efficacy trial, oral) was 2.2, the “Mean lesion score in Liver” value (APEC serotype O78; efficacy trial, oral) was 1.3 and the “Mean lesion score in Lung” value (APEC serotype O78; efficacy trial, oral) was 1. The Survival of chickens (APEC serotype O78; efficacy trial, oral, P ≤ 0.1, log rank test) was “prolonged the survival”, the Cumulative lesion score (APEC serotype O78; efficacy trial, oral) was 6.2 and the “Mortality reduction compared to PC group” value (APEC serotype O78; efficacy trial, oral) was 41.7%. The “% reduction in severity, Air sacs lesions” value (APEC serotype O78; efficacy trial, oral) was −17.6%, the “% reduction in severity, Heart lesions” value (APEC serotype O78; efficacy trial, oral) was −4% and the “% reduction in severity, Liver lesions” value (APEC serotype O78; efficacy trial, oral) was 20%. For the same compound, the “% reduction in severity, Lung lesions” value (APEC serotype O78; efficacy trial, oral) was 0%, the “log reduction in APEC load, Heart” value (APEC serotype O78; efficacy trial, oral) was 1.0 Log CFU/g tissues and the “log reduction in APEC load, Kidney” value (APEC serotype O78; efficacy trial, oral) was 2.4 Log CFU/g tissues. The “log reduction in APEC load, Liver” value (APEC serotype O78; efficacy trial, oral) was 0.8 Log CFU/g tissues, the “log reduction in APEC load, Lung” value (APEC serotype O78; efficacy trial, oral) was 1.4 Log CFU/g tissues and the “BWG (body weight gain)” value (APEC serotype O78) was 220.8±38.9. The MBC (APEC) was 50 µM (≈ 21.7 µg/mL) and the MIC (APEC) was 25 µM (≈ 10.8 µg/mL).
